Assay results: US20250382373A1, “ANTI-EGFR/MET ANTIBODIES AND USES THEREOF” (Biocytogen Pharmaceuticals (Beijing) Co., Ltd., priority 2022, published 2025)

Key:
[1] = test system: NCI-H292 cells; experiment: Internalization of antibodies targeting EGFR and/or MET in NCI-H292 cells; format: cell-based, human; settings: NCI-H292, 1 hour
Method: (§1) Anti-EGFR antibodies, anti-MET antibodies, or anti-EGFR/MET bispecific antibodies, together with the pHAb-Goat anti-human IgG secondary antibody were added to NCI-H1975 cells (ATCC, Reference No.: CRL-5908), HCC827 cells (ATCC, Reference No.: CRL-2868) and NCI-H292 (ATCC, Reference No.: CRL-1848) cells, respectively, and incubated for 1 hour. The cells were centrifuged and washed with FACS buffer. MFI was measured using a flow cytometer. Endocytosis rates of antibodies were calculated. For isotype control (ISO), an antibody targeting an irrelevant target protein was used.

[2] = test system: patient-derived pancreatic tumor fragments (PDX004); experiment: Human pancreatic PDX004 model; format: in vivo, B-NDG mice; settings: Day 35
Excerpt: The tested antibody and the frequency of administration was similar to Table 28.

[3] = test system: patient-derived lung tumor fragments (PDX002); experiment: Human lung PDX002 model; format: in vivo, B-NDG mice; settings: once a week x2; for Tumor volume Day 0: day of grouping; for Survival: surviving/total mice
Method: The control group mice were injected with PBS (G1).

[4] = test system: NCI-H292 cells; experiment: NCI-H292 xenograft model in B-NDG mice; settings: for Tumor volume Day 14: 14 days after grouping; for Tumor volume Day 14 / Tumor volume Day 0 / Tumor volume Day 24: 1×10^7 NCI-H292 cells, about 300 mm^3 at grouping; for TGI (%): Day 24; for TGI (%) / Survival: 1×10^7 NCI-H292 cells experiment; for Tumor volume Day 0: day of grouping; for Tumor volume Day 24: end of experiment; for Survival: surviving/total mice
Method: The antibodies were tested for their effect on tumor growth in vivo in a model of lung carcinoma. About 1×10^7 NCI-H292 cells were injected subcutaneously in B-NDG mice. When the tumor in mice reached a volume of about 300 mm^3, the mice were randomly placed into different groups based on the volume of the tumor. The mice were then injected with PBS or antibodies by intravenous (i.v.) administration. The frequency of administration was once a week (2 administrations in total).

[5] = test system: SNU-5 cells; experiment: SNU-5 xenograft model (gastric carcinoma) in B-NDG mice; format: in vivo; settings: for Tumor volume Day 10: 10 days after grouping; for TGI (%): Day 24; for Tumor volume Day 0: day of grouping; for Tumor volume Day 24: end of experiment; for Survival: surviving/total mice
[6] = test system: patient-derived pancreatic tumor fragments (PDX003); experiment: Human pancreatic PDX003 model; settings: for TGI (%): Day 21; for Tumor volume Day 0: day of grouping; for Survival: surviving/total mice
Method: The antibodies were tested for their effect in two human pancreatic PDX (PDX003 and PDX004) models.
In PDX003 model, B-NDG mice were engrafted in the right flank with patient-derived pancreatic tumor fragments (2 mm×2 mm×2 mm). When the tumors in the mice reached a volume of about 300-400 mm^3, the mice were randomly placed into different groups based on the volume of the tumor.

[7] = test system: NCI-H1975 cells; experiment: NCI-H1975 xenograft model in B-NDG mice; format: in vivo; settings: Table 21 study
Method: The lengths of the long axis and the short axis of the tumor were measured and the volume of the tumor was calculated as 0.5×(long axis)×(short axis)^2. The tumor growth inhibition (TGI) was calculated using the following formula: TGI (%)=[1−(Ti−T0)/(Vi−V0)]×100. Ti is the average tumor volume in the treatment group on day i. T0 is the average tumor volume in the treatment group on day zero. Vi is the average tumor volume in the control group on day i. V0 is the average tumor volume in the control group on day zero. T-test was performed for statistical analysis. […] P<0.05 is a threshold to indicate significant difference.

[8] = test system: HCC827 cells; experiment: Internalization of antibodies targeting EGFR and/or MET in HCC827 cells; format: cell-based, human; settings: HCC827, 1 hour
Method: as §1

[9] = test system: patient-derived lung tumor fragments (PDX001); experiment: Human lung PDX001 model; format: in vivo, B-NDG mice; settings: for TGI (%): Day 23; for Tumor volume Day 0: day of grouping; for Survival: surviving/total mice
[10] = test system: human lung cancer cell line NCI-H1975; experiment: In vitro killing activity, IncuCyte; format: cell-based
Method: Different concentrations of purified antibodies (10 μg/mL, 3.33 μg/mL, 1.11 μg/mL, 0.37 μg/mL, 0.123 μg/mL, 0.041 μg/mL, 0.013 μg/mL, and 0.004 μg/mL) and corresponding ADCs were used to treat human lung cancer cell line NCI-H1975 (5×10^3) cultured in a cell culture plate, and the killing activity was detected after 72 hours of incubation in IncuCyte (Sartorius AG, IncuCyte® S3).

## Amivantamab analog: analog of Amivantamab, fully human bispecific antibody targeting EGFR and MET; SEQ ID NOs: 77-80
[1]
  MFI: 13815
  Positive Population: 67.00%
[2]; 1 mg/kg
  TGI (%): −13.3%
[2]; 3 mg/kg
  TGI (%): −0.6%
[2]; 10 mg/kg
  TGI (%): 4.1%
[3]; 1 mg/kg
  Tumor volume Day 10: 805 ± 99 mm^3
  Tumor volume Day 21: 2279 ± 253 mm^3
  Tumor volume Day 0: 267 ± 12 mm^3
  Survival: 0/6
[3]; 3 mg/kg
  Tumor volume Day 10: 686 ± 55 mm^3
  Tumor volume Day 21: 1791 ± 214 mm^3
  Tumor volume Day 35: 3509 ± 239 mm^3
  Tumor volume Day 0: 267 ± 13 mm^3
  Survival: 3/6
[3]; 3 mg/kg, Day 35
  TGI (%): −7.1%
[4]; 1 mg/kg i.v. QW x2
  Tumor volume Day 14: 1338 ± 243 mm^3
  TGI (%): 0.4%
  Tumor volume Day 0: 311 ± 14 mm^3
  Tumor volume Day 24: 2485 ± 536 mm^3
  Survival: 4/5
[4]; 3 mg/kg i.v. QW x2
  Tumor volume Day 14: 1380 ± 320 mm^3
  TGI (%): 26.2%
  Tumor volume Day 0: 314 ± 11 mm^3
  Tumor volume Day 24: 1925 ± 389 mm^3
  Survival: 4/5
[4]; 10 mg/kg i.v. QW x2
  Tumor volume Day 14: 915 ± 150 mm^3
  TGI (%): 44.5%
  Tumor volume Day 0: 327 ± 11 mm^3
  Tumor volume Day 24: 1538 ± 267 mm^3
  Survival: 4/5
[5]; 3 mg/kg i.v. QW x2
  Tumor volume Day 10: 294 ± 10 mm^3
  TGI (%): 8.4%
  Tumor volume Day 0: 200 ± 5 mm^3
  Tumor volume Day 24: 1111 ± 64 mm^3
  Survival: 5/5
[5]; 10 mg/kg i.v. QW x2
  Tumor volume Day 10: 72 ± 9 mm^3
  TGI (%): 106.4%
  Tumor volume Day 0: 200 ± 9 mm^3
  Tumor volume Day 24: 136 ± 35 mm^3
  Survival: 5/5
[6]; 1 mg/kg i.v. QW x2
  Tumor volume Day 11: 811 ± 65 mm^3
  Tumor volume Day 21: 1410 ± 130 mm^3
  TGI (%): −2.0%
  Tumor volume Day 0: 340 ± 18 mm^3
  Survival: 6/6
[6]; 3 mg/kg i.v. QW x2
  Tumor volume Day 11: 705 ± 62 mm^3
  Tumor volume Day 21: 1216 ± 96 mm^3
  TGI (%): 16.5%
  Tumor volume Day 0: 340 ± 18 mm^3
  Survival: 6/6
[6]; 10 mg/kg i.v. QW x2
  Tumor volume Day 11: 666 ± 60 mm^3
  Tumor volume Day 21: 1146 ± 123 mm^3
  TGI (%): 23.2%
  Tumor volume Day 0: 340 ± 16 mm^3
  Survival: 6/6
[7]; 10 mg/kg i.v. QW x2
  Survival: 5/5
  Tumor volume Day 11: 143 ± 20 mm^3
  Tumor volume Day 21: 294 ± 40 mm^3
[7]; 10 mg/kg i.v. QW x2, Day 21
  TGI (%): 98.4%
[7]; 10 mg/kg i.v. QW x2, day of grouping
  Tumor volume Day 0: 260 ± 19 mm^3
[8]
  MFI: 30401
  Positive Population: 88.90%
[9]; 1 mg/kg i.v. QW x2
  Tumor volume Day 12: 1144 ± 86 mm^3
  Tumor volume Day 23: 3077 ± 235 mm^3
  TGI (%): −24.7%
  Tumor volume Day 0: 223 ± 18 mm^3
  Survival: 4/6
[9]; 3 mg/kg i.v. QW x2
  Tumor volume Day 12: 1448 ± 195 mm^3
  Tumor volume Day 23: 2465 ± 145 mm^3
  TGI (%): 2.0%
  Tumor volume Day 0: 223 ± 18 mm^3
  Survival: 3/6
[9]; 10 mg/kg i.v. QW x2
  Tumor volume Day 12: 1132 ± 77 mm^3
  Tumor volume Day 23: 2666 ± 212 mm^3
  TGI (%): −6.8%
  Tumor volume Day 0: 223 ± 22 mm^3
  Survival: 6/6
[10]; NCI-H1975, 72 hours
  IC50: Not detected
[10]; highest concentration of 10 μg/m
  ability to kill NCI-H1975: neither E-6C4-M-2F11 nor Amivantamab analog has the ability to kill
